Common to all, as to format: cell-based
Assay [1] concerns the target T1, pERK1/2 (Thr202/Tyr204), PANC-1 (KRAS G121D) (Homo sapiens, UniProt P01116, G12D).
T1 construct: pERK1/2 HTRF read-out
As to the kind of experiment: Assay of intracellular pERK1/2 (Thr202/Tyr204) phosphorylation in PANC-1 cells (KRAS G12D). The conditions noted are these: pERK1/2, 2 days, read-out: PANC-1 (KRAS G12D) IC50. An outline of the steps:
(§1)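 Cells (10000-12000/well) exposed to 3-fold compound dilutions for 2 days at 37 °C, then lysed; pERK1/2 (Thr202/Tyr204) measured by HTRF with d2 and cryptate antibodies, 665/615 nm ratio.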

The target of assay [2] is T2, pERK1/2 (Thr202/Tyr204), NCI-1H358 (KRAS G12C) (Homo sapiens, UniProt P01116, G12C).
T2 construct: pERK1/2 HTRF read-out
Description: Assay of intracellular pERK1/2 (Thr202/Tyr204) phosphorylation in NCI-H358 cells (KRAS G12C). The conditions noted are these: pERK1/2, 2 days, read-out: NCI-H358 (KRAS G12C) IC50. An outline of the steps: as §1

Assay [3] addresses T3, pERK1/2 (Thr202/Tyr204), NCI-1H441 (KRAS G12V) (Homo sapiens, UniProt P01116, G12V).
T3 construct: pERK1/2 HTRF read-out
As to the kind of experiment: Assay of intracellular pERK1/2 (Thr202/Tyr204) phosphorylation in NCI-H441 cells (KRAS G12V). The conditions noted are these: pERK1/2, 2 days, read-out: NCI-H441 (KRAS G12V) IC50. The essentials: as §1

T2 sequence (P01116 1-188 isoform P01116-2 G12C): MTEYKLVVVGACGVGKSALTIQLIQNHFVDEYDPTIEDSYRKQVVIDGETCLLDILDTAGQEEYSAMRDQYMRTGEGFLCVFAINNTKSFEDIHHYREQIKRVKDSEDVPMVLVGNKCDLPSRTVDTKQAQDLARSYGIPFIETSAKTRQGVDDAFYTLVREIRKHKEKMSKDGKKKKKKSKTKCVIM
T1 sequence (P01116 1-188 isoform P01116-2 G12D): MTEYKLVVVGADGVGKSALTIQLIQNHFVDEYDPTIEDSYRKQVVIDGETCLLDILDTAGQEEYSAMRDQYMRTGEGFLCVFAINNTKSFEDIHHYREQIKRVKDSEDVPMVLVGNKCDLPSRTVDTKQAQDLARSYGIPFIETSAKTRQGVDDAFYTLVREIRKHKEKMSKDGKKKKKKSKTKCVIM
T3 sequence (P01116 1-188 isoform P01116-2 G12V): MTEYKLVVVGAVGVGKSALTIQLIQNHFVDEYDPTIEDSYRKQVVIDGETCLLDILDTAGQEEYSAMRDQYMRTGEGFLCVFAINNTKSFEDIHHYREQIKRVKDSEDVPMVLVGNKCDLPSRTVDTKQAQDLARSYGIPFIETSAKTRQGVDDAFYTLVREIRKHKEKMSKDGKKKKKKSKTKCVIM

With `CC(c1cccnc1N)N1CCOc2nc(-c3cc(N)cc(Cl)c3C(F)(F)F)c(F)c3nc(OC[C@@H]4CCCN4C)nc1c23` (stereo partly drawn) [Compound 64], the IC50 in assay [1] is 23 nM; in assay [2] it was 0.6 nM; in assay [3], 2 nM.
Taken in the same sequence, the figures for `Cc1cc(N)cc(-c2nc3c4c(nc(OC[C@@H]5CCCN5C)nc4c2F)N(C(C)c2cccnc2N)CCO3)c1C(F)(F)F` (stereo partly drawn) [Compound 65] were 26 nM, 1 nM and 2 nM.
Taken in the same sequence, the figures for `CC(c1cccnc1N)N1CCOc2nc(-c3cc(N)cc(Cl)c3C3CC3)c(F)c3nc(OC[C@@]45CCCN4C[C@H](F)C5)nc1c23` (stereo partly drawn) [Compound 66] were 3 nM, 0.2 nM and 0.4 nM.
Turning to `CC(c1cccnc1N)N1CCOc2nc(-c3cc(N)cc(Cl)c3C3CC3)c(F)c3nc(OC[C@@H]4CCCN4C)nc1c23` (stereo partly drawn) [Compound 67], the IC50 in assay [1] worked out at 81 nM; in assay [2], 5 nM; in assay [3], 8 nM.
Taken in the same sequence, the figures for `CC(c1cccnc1N)N1CCOc2nc(-c3cc(N)cc(Cl)c3C3CC3)c(F)c3nc(OCC4(C#N)CC4)nc1c23` (stereo not drawn) [Compound 68] were greater than 1000 nM, 264 nM and 506 nM.
`Cc1cc(N)cc(-c2nc3c4c(nc(OCC5(CN(C)C)CC5)nc4c2F)N(C(C)c2cccnc2N)CCO3)c1C(F)(F)F` (stereo not drawn) [Compound 69]: the results for the IC50 in assay [1], in assay [2] and in assay [3] were 95 nM, 3 nM and 10 nM, respectively.
Taken in the same sequence, the figures for `Cc1cc(N)cc(-c2nc3c4c(nc(OC[C@@H]5CC(F)(F)CN5C)nc4c2F)N(C(C)c2cccnc2N)CCO3)c1C(F)(F)F` (stereo partly drawn) [Compound 70] were greater than 100 nM, 2 nM and 2 nM.
For `Cc1cc(N)cc(-c2nc3c4c(nc(OC[C@@H]5C[C@@H](F)CN5C)nc4c2F)N(C(C)c2cccnc2N)CCO3)c1C(F)(F)F` (stereo partly drawn) [Compound 73], the IC50 was determined as 31 nM in assay [1], 0.9 nM in assay [2] and 2 nM in assay [3].
On the same counts, the results for `CC(c1cccnc1N)N1CCOc2nc(-c3cc(N)cc(F)c3C(F)(F)F)c(F)c3nc(OC[C@@]45CCCN4C[C@H](F)C5)nc1c23` (stereo partly drawn) [Compound 82] are 15 nM, 0.8 nM and 0.8 nM.
With `Cc1nc(N)cc(-c2nc3c4c(nc(OC[C@@]56CCCN5C[C@H](F)C6)nc4c2F)N(C(C)c2cccnc2N)CCO3)c1C(F)(F)F` (stereo partly drawn) [Compound 83], the IC50 in assay [1] is 29 nM; in assay [2], 0.6 nM; in assay [3], 3 nM.
On the same counts, the results for `Cc1cc(N)cc(-c2nc3c4c(nc(OCC56CCCN5CCC6)nc4c2F)N(C(C)c2cccnc2N)CCO3)c1C(F)(F)F` (stereo not drawn) [Compound 87] are 36 nM, 3 nM and 6 nM.
Consider `C#Cc1c(Cl)cc(N)cc1-c1nc2c3c(nc(OC[C@@H]4CCCN4C)nc3c1F)N(C(C)c1cccnc1N)CCO2` (stereo partly drawn) [Compound 94], for which the IC50 is greater than 100 nM in assay [1], 46 nM in assay [2] and 100 nM in assay [3].
On the same counts, the results for `Cc1nc(N)cc(-c2nc3c4c(nc(OC[C@@H]5CCCN5C)nc4c2F)N(C(C)c2cccnc2N)CCO3)c1C(F)(F)F` (stereo partly drawn) [Compound 97] are greater than 100 nM, 16 nM and 36 nM.
As for `[2H]C([2H])(Oc1nc2c3c(nc(-c4cc(N)c(F)c(C)c4C(F)(F)F)c(F)c3n1)OCCN2C(C)c1cccnc1N)[C@@H]1CCC([2H])([2H])N1C([2H])([2H])[2H]` (stereo partly drawn) [Compound 104], the IC50 in assay [1] stood at 24 nM; in assay [2], 2 nM; in assay [3] it was 3 nM.
Taken in the same sequence, the figures for `[2H]C1([2H])CC[C@@]2(C([2H])([2H])Oc3nc4c5c(nc(-c6cc(N)cc(C)c6C(F)(F)F)c(F)c5n3)OCCN4C(C)c3cccnc3N)C[C@@H](F)CN12` (stereo partly drawn) [Compound 105] were 2 nM, 0.4 nM and 0.6 nM.

The values above are taken from patent US20260356851A1, “TRICYCLIC COMPOUNDS AND USES THEREOF” (HUTCHMED LIMITED, priority 2023, published 2026).
